BindingDB's records for patent US11691969 (Ribon Therapeutics, 2023)

Target: T1, Protein mono-ADP-ribosyltransferase TIPARP (Homo sapiens, UniProt Q7Z3E1)
T1 sequence (Q7Z3E1 whole entry): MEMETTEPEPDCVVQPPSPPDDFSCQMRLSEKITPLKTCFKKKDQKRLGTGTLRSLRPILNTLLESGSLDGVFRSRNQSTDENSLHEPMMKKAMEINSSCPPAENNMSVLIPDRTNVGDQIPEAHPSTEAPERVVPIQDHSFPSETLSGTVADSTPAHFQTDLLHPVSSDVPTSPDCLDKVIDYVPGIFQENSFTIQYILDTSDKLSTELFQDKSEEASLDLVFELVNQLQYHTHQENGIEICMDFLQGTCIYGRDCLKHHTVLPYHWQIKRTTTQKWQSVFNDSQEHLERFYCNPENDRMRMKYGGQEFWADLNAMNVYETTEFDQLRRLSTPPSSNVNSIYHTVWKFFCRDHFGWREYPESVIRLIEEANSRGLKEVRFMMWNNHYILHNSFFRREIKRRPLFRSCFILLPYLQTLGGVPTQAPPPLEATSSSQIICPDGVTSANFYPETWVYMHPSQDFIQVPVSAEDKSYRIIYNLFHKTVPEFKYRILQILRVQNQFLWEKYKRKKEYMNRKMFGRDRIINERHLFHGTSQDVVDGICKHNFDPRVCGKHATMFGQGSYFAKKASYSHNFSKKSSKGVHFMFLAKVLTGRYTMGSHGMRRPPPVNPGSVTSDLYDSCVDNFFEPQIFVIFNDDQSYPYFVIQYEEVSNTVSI
Assay: Enzymatic Assay
Method: Displacement of Probe A, a biotinylated probe binding to the TIPARP active site, was measured using a time-resolved fluorescence energy transfer (TR-FRET) assay. 20 nL of a dose response curve of each test compound was spotted in black 384-well polystyrene proxiplates (Perkin Elmer) using a Mosquito (TTP Labtech). Reactions were performed in a 8 μl volume by adding 6 μL of TIPARP and Probe A in assay buffer (20 mM HEPES pH=8, 100 mM NaCl, 0.1% bovine serum albumin, 2 mM DTT and 0.002% Tween20), incubating with test compound at 25° C. for 30 min, then adding 2 μL of ULight-anti 6×His and LANCE Eu-W1024 labeled streptavidin (Perkin Elmer). The final concentrations of TIPARP and Probe A were 6 nM and 2 nM, respectively. The final concentration of ULight-anti 6×His and LANCE Eu-W1024 labeled streptavidin were 4 nM and 0.25 nM, respectively. Reactions were incubated at 25° C. for an additional 30 min, then read on an Envision platereader equipped with a LANCE/DELFIA top mirror (Perkin Elmer) using excitation of 320 nm and emission of 615 nm and […] with a […]. The ratio of the 665/615 nm emission were calculated for each well to determine the amount of complex of TIPARP and Probe Ain each well. […]

IC50: in the range around 550 nM
SMILES: C[C@@H](CO[C@H]1CCN(C2CCN(c3ncc(C(F)(F)F)cn3)CC2)C1=O)Nc1cn[nH]c(=O)c1Br [US11691969, Example 23]
